From article PMC11062899, “De novo development of small cyclic peptides that are orally bioavailable” (Nature Chemical Biology, 2023)
Values joined by “and” are separate entries in the source; they are usually repeats but may differ in a detail not shown here. Identical values can stand only once.

Assays:
[1] = Metabolic stability in rat liver microsomes (RLMs); details: rat, microsomes
[2] = Passive artificial membrane permeability (PAMPA); details: for PAMPA permeability: % permeability: 50 μM, 12–18 h, acceptor concentration relative to equilibrium; for Papp at 50 μM / Permeability% Average / Permeability% R1 / Permeability% R3: PAMPA; for Papp at 50 μM: pH 7.4; for Permeability% Average: average of R1-R3; for Permeability% R1: replicate R1; for Permeability% R1 / Permeability% R3: TIC of top well sample relative to sample at theoretical equilibrium; for Permeability% R3: replicate R3
Method: The plate system consisted of a 96-well microwell plate (donor wells) and a 96-well insert containing a PVDF membrane coated with tri-layers of phospholipids (acceptor wells). Permeability was measured from the bottom plate (donor wells) to the top insert (acceptor wells). Cyclic peptide or reference compound solutions were prepared at a concentration of 50 μM in PBS buffer (pH 7.4) containing 5% DMSO, and 300 μl of the resulting solutions was placed into the donor wells of the PAMPA plate. Acceptor wells were prepared by adding 200 μl of PBS buffer (pH 7.4) containing 5% DMSO. The insert was stacked onto the donor plate, and the system was covered with a lid to avoid evaporation. […] Additionally, 3:2 dilutions of the 50 μM cyclic peptide stocks were prepared in PBS buffer (pH 7.4) containing 5% DMSO to yield a sample corresponding to the theoretical equilibrium between donor and acceptor wells. The samples were run on the LC–MS to measure the cyclic peptide concentration representing maximum permeability. Permeability percent was calculated using equation (4) below.4 Permeability%=PeptideAcceptor/PeptideEquilibrated×100 where [PeptideAcceptor] represents the AUC measured on the LC–MS for the acceptor wells, and [PeptideEquilibrated] represents the AUC measured for the samples diluted to the theoretical equilibrium. Detection limit for the assay was typically at 1% permeability.
Papp values were calculated using equation (5).5 Papp=VD×VA/VD+VA×A×t×−ln1−PeptideAcceptor/PeptideEquilibrated where VD and VA are the volumes of donor and acceptor wells, respectively; A is the area of the membrane; and t is the incubation time.

[3] = molecular target: human α-thrombin (Homo sapiens, UniProt P00734); assay: Protease inhibition, Ki for human α-thrombin (fluorogenic substrate Z-Gly-Gly-Arg-AMC); format: biochemical; details: replicates R1-R3
Summary of the method: (§1)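 Ki derived through Cheng–Prusoff from IC50s (four-parameter logistic fit) against activity of peptide-free controls. Product fluorescence was read every 3 min over 30 min at 25 °C, substrate Z-Gly-Gly-Arg-AMC at 50 μM. Enzyme was 2 nM human or 3 nM rat α-thrombin, pH 7.4 buffer.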

[4] = molecular target: T1, porcine pepsin (Sus scrofa, UniProt P00791); assay: Peptide stability in simulated gastric fluid (SGF); format: in vitro ADME; details: for SGF stability, Residual peptide Average / SGF stability, Residual peptide: after 8 h vs 0 h (TIC); for SGF stability, Residual peptide Average: average of R1-R3; for SGF stability, Residual peptide: single replicates R1-R3; for remaining at 8 h: simulated gi fluid, 37 °C, pH 1.2, read-out: Proteolytic stability: SGF (8 h) % remaining
T1 construct: 0.32 g of porcine pepsin (Sigma-Aldrich, P7125) was dissolved under gentle agitation; purchased Sigma-Aldrich P7125
T1 sequence (P00791 60-385): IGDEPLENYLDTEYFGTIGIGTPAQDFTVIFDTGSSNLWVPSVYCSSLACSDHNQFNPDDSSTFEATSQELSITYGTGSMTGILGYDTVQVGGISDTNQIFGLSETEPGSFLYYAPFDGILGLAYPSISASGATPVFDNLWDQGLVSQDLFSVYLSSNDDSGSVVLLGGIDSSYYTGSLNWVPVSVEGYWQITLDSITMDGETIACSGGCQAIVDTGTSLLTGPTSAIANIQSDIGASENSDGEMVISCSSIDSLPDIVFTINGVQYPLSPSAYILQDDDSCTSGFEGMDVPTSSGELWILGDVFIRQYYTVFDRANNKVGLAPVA
Summary of the method: (§2)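 Peptide from a 1 mM DMSO stock was added to fluid pre-warmed at 37 °C. SGF was pH 1.2 NaCl with porcine pepsin (0.32 g per 100 ml), and SIF was pH 6.8 potassium phosphate with porcine pancreatin (1 g per 100 ml). Supernatant peptide was quantified by LC–MS, with residual expressed as T1/T0.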

[5] = molecular target: T2, rat α-thrombin (Rattus norvegicus, UniProt P18292); assay: Protease inhibition, Ki for rat α-thrombin (fluorogenic substrate Z-Gly-Gly-Arg-AMC); format: biochemical; details: replicates R1-R3
T2 construct: rat α-thrombin (Molecular Innovations) were used at final concentrations of 2 nM and 3 nM; purchased Molecular Innovations
Summary of the method: as §1

[6] = Peptide stability in simulated intestinal fluid (SIF); format: in vitro ADME, porcine; details: simulated gi fluid; 8 h, 37 °C, pH 6.8; read-out: Proteolytic stability: SIF (8 h) % remaining
Summary of the method: as §2

[7] = system: porcine pancreatin; assay: as above; format: in vitro ADME; details: after 8 h vs 0 h (TIC); for SIF stability, Residual peptide Average: average of R1-R3; for SIF stability, Residual peptide: single replicates R1-R3
Summary of the method: as §2

[8] = CL (ul/min/mg protein) R1, RLM CL, replicate R1
[9] = CL (ul/min/mg protein) R2, RLM CL, replicate R2
[10] = CL (ul/min/mg protein) R3, RLM CL, replicate R3
[11] = Half Life (min) R1, RLM metabolic stability, replicate R1, 0-60 min
[12] = Half Life (min) R2, RLM metabolic stability, replicate R2, 0-60 min
[13] = Half Life (min) R3, RLM metabolic stability, replicate R3, 0-60 min
[14] = Metabolic stability: Half life T1/2 (min), RLMs, mean and SD, three measurements
[15] = Metabolic stability: RLM CL (ul/min/mg), RLMs, mean and SD, three measurements
[16] = peptide 1.33E+02 uM, slope of proteolytic substrate cleavage over time

O=C1NCCSCc2cccc(n2)CSC[C@H](NC(=O)c2ccc(Cl)s2)C(=O)N[C@@H](CO)C(=O)NCc2cccc1c2 [compound 27]
microsomal CLint [1, 8]: 48.3 µL/min/mg | microsomal CLint [1, 9]: 57.4 µL/min/mg | microsomal CLint [1, 10]: 60.2 µL/min/mg | half-life [1, 11]: 28.7 min | half-life [1, 12]: 24.2 min | half-life [1, 13]: 23 min | half-life [1, 14]: 25 ± 2 min | microsomal CLint [1, 15]: 55 ± 5 µL/min/mg | PAMPA permeability: % permeability [2]: 2.5 ± 1.2% | Papp at 50 μM [2]: 0.151 ×10⁻⁶ cm/s | Permeability% Average [2]: 2.5% | Permeability% R1 [2]: 3.72% | Permeability% R3 [2]: 2.35% | Human alpha thrombin inhibition, slope normalized to DMSO ([3]; peptide 1.02E-03 uM): 98.3 and 96.5 and 99.8 | Human alpha thrombin inhibition, slope normalized to DMSO ([3]; peptide 1.04E+00 uM): 84.1 and 76.8 and 79.3 | Human alpha thrombin inhibition, slope normalized to DMSO ([3]; peptide 1.27E-04 uM): 100.0 and 98.1 and 101.1 | Human alpha thrombin inhibition, slope normalized to DMSO ([3]; peptide 1.30E-01 uM): 95.4 and 96.3 and 96.1 | Human alpha thrombin inhibition, slope normalized to DMSO [3, 16]: 7.7 and 17.1 and 13.6 | Human alpha thrombin inhibition, slope normalized to DMSO ([3]; peptide 1.63E-02 uM): 97.0 and 96.5 and 98.2 | Human alpha thrombin inhibition, slope normalized to DMSO ([3]; peptide 1.67E+01 uM): 27.2 and 28.7 and 30.2 | Human alpha thrombin inhibition, slope normalized to DMSO ([3]; peptide 2.03E-03 uM): 100.7 and 96.1 and 100.3 | Human alpha thrombin inhibition, slope normalized to DMSO ([3]; peptide 2.08E+00 uM): 72.7 and 80.3 and 72.0 | Human alpha thrombin inhibition, slope normalized to DMSO ([3]; peptide 2.54E-04 uM): 101.2 and 95.7 and 100.6 | Human alpha thrombin inhibition, slope normalized to DMSO ([3]; peptide 2.60E-01 uM): 93.2 and 89.7 and 91.7 | Human alpha thrombin inhibition, slope normalized to DMSO ([3]; peptide 3.18E-05 uM): 102.0 and 95.9 and 100.7 | Human alpha thrombin inhibition, slope normalized to DMSO ([3]; peptide 3.26E-02 uM): 97.3 and 93.9 and 91.1 | Human alpha thrombin inhibition, slope normalized to DMSO ([3]; peptide 3.33E+01 uM): 17.1 and 15.9 (2×) | Human alpha thrombin inhibition, slope normalized to DMSO ([3]; peptide 4.07E-03 uM): 99.1 and 96.8 and 105.4 | Human alpha thrombin inhibition, slope normalized to DMSO ([3]; peptide 4.17E+00 uM): 57.2 and 53.3 and 58.0 | Human alpha thrombin inhibition, slope normalized to DMSO ([3]; peptide 5.09E-04 uM): 99.5 and 108.3 and 102.0 | Human alpha thrombin inhibition, slope normalized to DMSO ([3]; peptide 5.21E-01 uM): 89.3 and 86.3 and 89.6 | Human alpha thrombin inhibition, slope normalized to DMSO ([3]; peptide 6.36E-05 uM): 101.1 and 95.4 and 95.5 | Human alpha thrombin inhibition, slope normalized to DMSO ([3]; peptide 6.51E-02 uM): 97.1 and 92.8 and 96.9 | Human alpha thrombin inhibition, slope normalized to DMSO ([3]; peptide 6.67E+01 uM): 14.5 and 13.5 and 16.4 | Human alpha thrombin inhibition, slope normalized to DMSO ([3]; peptide 8.14E-03 uM): 99.5 and 100.5 and 98.6 | Human alpha thrombin inhibition, slope normalized to DMSO ([3]; peptide 8.33E+00 uM): 48.2 and 47.8 and 48.5 | SGF stability, Residual peptide Average [4]: 98.89 | SGF stability, Residual peptide [4]: 99.89 and 99.67 and 97.09 | remaining at 8 h [4]: 99 ± 2% | Rat alpha thrombin inhibition, slope normalized to DMSO [5, 16]: 3.9 and 4.8 and 10.9 | Rat alpha thrombin inhibition, slope normalized to DMSO ([5]; peptide 1.67E+01 uM): 9.1 and 8.9 and 16.0 | Rat alpha thrombin inhibition, slope normalized to DMSO ([5]; peptide 2.08E+00 uM): 42.2 and 39.9 and 27.8 | Rat alpha thrombin inhibition, slope normalized to DMSO ([5]; peptide 3.33E+01 uM): 5.4 and 4.9 and 14.0 | Rat alpha thrombin inhibition, slope normalized to DMSO ([5]; peptide 4.17E+00 uM): 24.5 and 25.5 and 24.4 | Rat alpha thrombin inhibition, slope normalized to DMSO ([5]; peptide 6.67E+01 uM): 4.0 and 4.6 and 11.6 | Rat alpha thrombin inhibition, slope normalized to DMSO ([5]; peptide 8.33E+00 uM): 18.9 and 18.5 and 19.5 | remaining at 8 h [6]: 92 ± 9% | SIF stability, Residual peptide Average [7]: 91.64 | SIF stability, Residual peptide [7]: 89.51 and 84.30 and 101.11

O=C(N[C@H]1CSCc2cccc(n2)CSCCNC(=O)[C@H](Cc2ccccn2)NC(=O)C2(CCCC2)NC1=O)c1ccc(Cl)s1 [compound 28]
microsomal CLint [1, 8]: 81.1 µL/min/mg | microsomal CLint [1, 9]: 96.1 µL/min/mg | microsomal CLint [1, 10]: 78 µL/min/mg | half-life [1, 11]: 17.1 min | half-life [1, 12]: 14.4 min | half-life [1, 13]: 17.8 min | half-life [1, 14]: 16.4 ± 1.4 min | microsomal CLint [1, 15]: 85 ± 8 µL/min/mg | PAMPA permeability: % permeability [2]: 30 ± 7% | Papp at 50 μM [2]: 2.29 ×10⁻⁶ cm/s | Permeability% Average [2]: 29.5% | Permeability% R1 [2]: 35.05% | Permeability% R3 [2]: 31.19% | Human alpha thrombin inhibition, slope normalized to DMSO ([3]; peptide 1.02E-03 uM): 100.6 and 102.2 and 99.4 | Human alpha thrombin inhibition, slope normalized to DMSO ([3]; peptide 1.04E+00 uM): 91.1 and 87.4 and 92.0 | Human alpha thrombin inhibition, slope normalized to DMSO ([3]; peptide 1.27E-04 uM): 100.4 and 99.0 and 100.8 | Human alpha thrombin inhibition, slope normalized to DMSO ([3]; peptide 1.30E-01 uM): 103.2 and 98.5 and 101.7 | Human alpha thrombin inhibition, slope normalized to DMSO [3, 16]: 16.8 and 18.7 and 23.0 | Human alpha thrombin inhibition, slope normalized to DMSO ([3]; peptide 1.63E-02 uM): 79.4 and 98.4 and 92.1 | Human alpha thrombin inhibition, slope normalized to DMSO ([3]; peptide 1.67E+01 uM): 53.5 and 53.3 and 56.4 | Human alpha thrombin inhibition, slope normalized to DMSO ([3]; peptide 2.03E-03 uM): 77.9 and 96.7 and 93.1 | Human alpha thrombin inhibition, slope normalized to DMSO ([3]; peptide 2.08E+00 uM): 88.5 and 72.9 and 90.5 | Human alpha thrombin inhibition, slope normalized to DMSO ([3]; peptide 2.54E-04 uM): 100.6 and 92.1 and 94.0 | Human alpha thrombin inhibition, slope normalized to DMSO ([3]; peptide 2.60E-01 uM): 98.5 and 95.3 and 96.4 | Human alpha thrombin inhibition, slope normalized to DMSO ([3]; peptide 3.18E-05 uM): 102.4 and 100.9 (2×) | Human alpha thrombin inhibition, slope normalized to DMSO ([3]; peptide 3.26E-02 uM): 99.5 and 98.1 and 103.6 | Human alpha thrombin inhibition, slope normalized to DMSO ([3]; peptide 3.33E+01 uM): 35.9 and 38.0 and 41.6 | Human alpha thrombin inhibition, slope normalized to DMSO ([3]; peptide 4.07E-03 uM): 103.3 and 98.8 and 95.5 | Human alpha thrombin inhibition, slope normalized to DMSO ([3]; peptide 4.17E+00 uM): 79.3 and 79.5 and 79.0 | Human alpha thrombin inhibition, slope normalized to DMSO ([3]; peptide 5.09E-04 uM): 102.1 and 100.7 and 91.1 | Human alpha thrombin inhibition, slope normalized to DMSO ([3]; peptide 5.21E-01 uM): 99.8 and 93.6 and 95.9 | Human alpha thrombin inhibition, slope normalized to DMSO ([3]; peptide 6.36E-05 uM): 102.4 and 110.3 and 102.0 | Human alpha thrombin inhibition, slope normalized to DMSO ([3]; peptide 6.51E-02 uM): 102.8 and 95.7 and 101.3 | Human alpha thrombin inhibition, slope normalized to DMSO ([3]; peptide 6.67E+01 uM): 23.2 and 24.0 and 29.0 | Human alpha thrombin inhibition, slope normalized to DMSO ([3]; peptide 8.14E-03 uM): 99.1 and 108.8 and 87.5 | Human alpha thrombin inhibition, slope normalized to DMSO ([3]; peptide 8.33E+00 uM): 72.2 and 85.5 and 69.3 | SGF stability, Residual peptide Average [4]: 95.21 | SGF stability, Residual peptide [4]: 100.04 and 92.83 and 92.76 | remaining at 8 h [4]: 95 ± 4% | Rat alpha thrombin inhibition, slope normalized to DMSO [5, 16]: 12.2 (2×) and 11.8 | Rat alpha thrombin inhibition, slope normalized to DMSO ([5]; peptide 1.67E+01 uM): 38.3 and 37.3 and 38.4 | Rat alpha thrombin inhibition, slope normalized to DMSO ([5]; peptide 2.08E+00 uM): 79.7 and 78.5 and 79.5 | Rat alpha thrombin inhibition, slope normalized to DMSO ([5]; peptide 3.33E+01 uM): 24.3 and 23.3 and 23.8 | Rat alpha thrombin inhibition, slope normalized to DMSO ([5]; peptide 4.17E+00 uM): 68.5 and 68.7 and 67.7 | Rat alpha thrombin inhibition, slope normalized to DMSO ([5]; peptide 6.67E+01 uM): 14.7 and 14.3 and 13.4 | Rat alpha thrombin inhibition, slope normalized to DMSO ([5]; peptide 8.33E+00 uM): 56.8 and 54.3 and 57.8 | remaining at 8 h [6]: 94 ± 12% | SIF stability, Residual peptide Average [7]: 94.01 | SIF stability, Residual peptide [7]: 86.19 and 87.95 and 107.89
